Patent publication US20220047507A1, “MELFLUFEN DOSAGE REGIMENS FOR CANCER” (ONCOPEPTIDES AB, priority 2015, published 2022)

Tests used:
[1] = tested on: relapsed-refractory multiple myeloma (RRMM) patients; assay: Efficacy in patients with RRMM, Example 2a; type: in vivo, human
Experimental: (§1) Example 2: An open label single arm extension on the dose of 40 mg over 30 minutes of Example 1. Intravenous melflufen was administered over 30 minutes on Day 1 of a 21-day cycle or 28-day cycle (in combination with 40 mg dexamethasone (oral or intravenous) treatment on Days 1, 8 and 15) for at least 2 cycles, and up to the stated number of cycles. The cycle length was extended during the Example 2 Clinical Trial from 21 to 28 days per a protocol amendment to allow for a better recovery of neutrophils and thrombocytes before a new cycle is initiated.
(§2) Example 2a results are from a data cut-off of time point (a). Example 2b results are from a data cut-off of time point (bi) for the efficacy data, which was approximately 12 months after time point (a); and from a data cut-off of time point (bii) for the safety data, which was approximately 10 months after time point (a).
By the data cut-off point for Example 2a, 38 patients with relapsing MM had been dosed with 40 mg of melflufen hydrochloride (the 40 mg dosage excludes the mass of the salt component) administered over 30 minutes every 3 weeks (21 days) in combination with weekly dexamethasone (day 1, 8 and 15). 162 doses of melflufen were administered in total. The median number of cycles initiated was 3 (1-13) and the median duration of treatment was 13 weeks (2-51). The mean dose intensity was 96% (77-100). By the data cut-off point, ten patients were still in treatment, 2 had completed treatment and 26 patients discontinued from treatment (15 due to AEs, 8 due to PD, 2 deaths and 1 for other reasons). Twenty-seven patients were still in the study (10 patients in treatment and 17 in follow-up), while 11 patients were off study (8 patients due to death, 1 due to PD, 1 withdrew consent and 1 lost in follow-up).
Twenty-seven patients were evaluable for efficacy (per the protocol, these patients had received at least two cycles of melflufen and had adequate follow-up assessments). 11 patients were not evaluable for response due to rapid early progression (7), early termination due to adverse events (3) or too early to assess (1).

[2] = tested on: relapsed-refractory multiple myeloma (RRMM) patients; assay: Safety in patients with RRMM, Example 2b, time point (bii); type: in vivo, human
Experimental: as §1
Dose reductions from 40 mg to 25 mg melflufen for patients in the trial was possible in connection with adverse effects of thrombocytopenia/neutropenia.
as §2
By the data cut-off point for safety data (time point (bii)) 40 patients has been dosed with 183 doses of melflufen hydrochloride 40 mg over 30 minutes. A total of 11 patients had dose reductions from 40 mg to 25 mg melflufen during the study. All dose reductions were in connection with AEs of thrombocytopenia/neutropenia. Seven (7) patients (64%) had dose reductions in connection to thrombocytopenia, 3 patients to neutropenia (27%) and 1 patient (9%) to both thrombocytopenia and neutropenia.

[3] = Evaluable ≥ 2 cycles, n 27, listed as Melflufen
[4] = Number of refractory agents 0, Example 2a (n = 27)
[5] = Number of refractory agents 1, Example 2a (n = 27)
[6] = Number of refractory agents 2, Example 2a (n = 27)
[7] = Number of refractory agents 3, Example 2a (n = 27)
[8] = Number of refractory agents 4, Example 2a (n = 27)
[9] = Pomalidomide refractory, Example 2a, 27 evaluable
[10] = refractory status None, Example 2a, 27 evaluable
[11] = refractory status PI + IMiD + Alkylator, Example 2a, 27 evaluable
[12] = 40 mg melflufen (+dex) treated patients
[13] = 40 mg treated patients, Example 2b
[14] = 40 mg, Example 2b N = 40, listed as melflufen hydrochloride
[15] = Cycle length 21 days, 30 patients, 87 cycles
[16] = Cycle length 28 days, 10 patients, 24 cycles
[17] = of the 11 patients with dose reductions
[18] = of the 40 safety evaluable patients

## CCOC(=O)[C@H](Cc1ccc(F)cc1)NC(=O)[C@@H](N)Cc1ccc(N(CCCl)CCCl)cc1.Cl [melflufen, L-Melphalanyl-4-fluoro-L-phenylalanine ethyl ester]
[1]; Evaluable ≥ 1 cycle, n 35
  Clinical Benefit Rate (CBR): 43%
  Minimal Response (MR), patients: 4
  Overall Response Rate (ORR): 31%
  Stable Disease (SD), patients: 12
  Very Good Positive Response (PR), patients: 2
[1]; Evaluable ≥ 2 cycles, n 27
  Clinical Benefit Rate (CBR): 56%
  Minimal Response (MR), patients: 4
  Overall Response Rate (ORR): 41%
  Positive Response (PR), patients: 9
  Progressive Disease (PD), patients: 1
  Stable Disease (SD), patients: 11
[1]; Evaluable ≥ 2 cycles, n 27, 40 mg over 30 min + dexamethasone
  Very Good Positive Response (PR), patients: 2
[1]; [3]
  Clinical Benefit Rate (CBR): 56%
  Overall Response Rate (ORR): 41%
[1]; Example 2a, 4 events in 11 responding patients
  median duration of response (DOR): 9.6 months
[1]; Example 2a, 13 events in 27 patients
  median progression free survival (PFS): 9.4 months
[1]; Example 2a, all treated n=38 vs published pomalidomide trial
  hazard ratio for melflufen compared to pomalidomide (PFS): 0.68 (0.44-1.05)
[1]; [4]
  CBR(≥MR): (100) %
  ORR (≥PR): (100) %
[1]; [5]
  CBR(≥MR): (54) %
  ORR (≥PR): (38) %
[1]; [6]
  CBR(≥MR): (57) %
  ORR (≥PR): (43) %
[1]; [7]
  CBR(≥MR): (63) %
  ORR (≥PR): (44) %
[1]; [8]
  CBR(≥MR): (71) %
  ORR (≥PR): (43) %
[1]; [9]
  CRR (≥MR): (50) %
  ORR (≥PR): (30) %
[1]; RRMM patient population, Example 2a
  reduction in risk of death over 16 months compared to pomalidomide: 32%
[1]; Triple refractory (2 PI/ImiD + 1 ImiD/PI), Example 2a, 27 evaluable
  CRR (≥MR): (60) %
[1]; of 27 evaluable
  best response of minimal response (MR) or better, n patients: 15
  confirmed PR, n patients: 11
[1]; refractory status Alkylator, Example 2a, 27 evaluable
  CRR (≥MR): (64) %
[1]; refractory status IMiD, Example 2a, 27 evaluable
  CRR (≥MR): (52) %
[1]; [10]
  CRR (≥MR): (100) %
  ORR (≥PR): (100) %
[1]; [11]
  CRR (≥MR): (44) %
  ORR (≥PR): (33) %
[1]; refractory status PI + IMiD, Example 2a, 27 evaluable
  CRR (≥MR): (44) %
[1]; refractory status PI, Example 2a, 27 evaluable
  CRR (≥MR): (47) %
[2]; [12]
  Grade 3 and 4 febrile neutropenia regardless of relationship: 5%
  Grade 3 and 4 lower respiratory tract infection regardless of relationship: 2%
  Grade 3 and 4 lower respiratory tract infection regardless of relationship, n patients: 1
  Grade 3 and 4 neutropenia regardless of relationship, n patients: 23
  Grade 3 and 4 parainfluenza virus infection regardless of relationship: 2%
  Grade 3 and 4 parainfluenza virus infection regardless of relationship, n patients: 1
  Grade 3 and 4 pneumonia regardless of relationship: 10%
[2]; [13]
  Grade 3/4 hyperglycemia (reported as treatment-related to dexamethasone): 10%
  Grade 3/4 hyperglycemia (reported as treatment-related to dexamethasone), n patients: 4
[2]; 40 mg, Example 2b
  Serious TEAE related to melflufen: Diarrhoea: (5) %
  Serious TEAE related to melflufen: Diarrhoea, number of patients: 2
  Serious TEAE related to melflufen: Escherichia coli sepsis: (2.5) %
  Serious TEAE related to melflufen: Escherichia coli sepsis, number of patients: 1
  Serious TEAE related to melflufen: Febrile Neutropenia: (5) %
  Serious TEAE related to melflufen: Febrile Neutropenia, number of patients: 2
  Serious TEAE related to melflufen: Neutropenia: (5) %
  Serious TEAE related to melflufen: Neutropenia, number of patients: 2
  Serious TEAE related to melflufen: Pneumonia: (10) %
  Serious TEAE related to melflufen: Pneumonia, number of patients: 4
  Serious TEAE related to melflufen: Pyrexia: (5) %
  Serious TEAE related to melflufen: Pyrexia, number of patients: 2
  anemia, all grades, regardless of relationship: 65%
  asthenia, all grades, regardless of relationship: 35%
  diarrhoea, all grades, regardless of relationship: 25%
  nausea, all grades, regardless of relationship: 28%
  neutropenia, all grades, regardless of relationship: 65%
  pyrexia, all grades, regardless of relationship: 43%
  thrombocytopenia, all grades, regardless of relationship: 73%
[2]; 40 mg, Example 2b N = 40
  Anemia, treatment related ≥grade 3: 43%
  Any treatment-related grade 3 and/or grade 4, grade 4: (50) %
  Any treatment-related grade 3 and/or grade 4, ≥grade 3: 85%
  Asthenia, treatment related ≥grade 3: (5) %
  Blood and lymphatic system disorders, treatment related grade 4: (50) %
  Blood and lymphatic system disorders, treatment related ≥grade 3: (82.5) %
  Fatigue, treatment related ≥grade 3: (5) %
  Febrile neutropenia, treatment related ≥grade 3: (5) %
  General disorders and administration site conditions, treatment related ≥grade 3: (17.5) %
  Hyperglycemia, treatment related grade 4: (3) %
  Hyperglycemia, treatment related ≥grade 3: (8) %
  Infections and infestations, treatment related ≥grade 3: (5) %
  Investigations, treatment related ≥grade 3: (12.5) %
  Metabolism and nutrition disorders, treatment related grade 4: (3) %
  Metabolism and nutrition disorders, treatment related ≥grade 3: (8) %
  Neutropenia, treatment related grade 4: (30) %
  Neutropenia, treatment related ≥grade 3: 58%
  Neutrophil count decreased, treatment related ≥grade 3: (10) %
  Pneumonia, treatment related ≥grade 3: (5) %
  Pyrexia, treatment related ≥grade 3: (5) %
  Thrombocytopenia, treatment related grade 4: (40) %
  Thrombocytopenia, treatment related ≥grade 3: 63%
  White blood cell count decreased, treatment related ≥grade 3: (5) %
[2]; [14]
  Anemia, treatment related ≥grade 3: (43) %
  Any treatment-related grade 3 and/or grade 4, ≥grade 3: (85) %
  Neutropenia, treatment related ≥grade 3: (57.5) %
  Thrombocytopenia, treatment related ≥grade 3: (62.5) %
[2]; 40 mg, Example 2b, 40 patients
  patients with Serious TEAEs: 40%
  patients with treatment-related Serious TEAEs: 30%
[2]; 14 patients
  median number of cycles before discontinuation due to bone marrow suppression: 3.5 cycles
[2]; [15]
  Cycles with a dose interruption: (37) % of total
  Patients with a dose interruption: (57) % of total
  Patients with a dose reduction: (37) % of total
[2]; [16]
  Cycles with a dose interruption: (13) % of total
  Patients with a dose interruption: (30) % of total
  Patients with a dose reduction: (20) % of total
[2]; Example 2b
  incidence of Grade 3-4 pneumonia: 14%
  infectious adverse effects with fatal outcomes possibly related to the study treatments: 8%
  infectious adverse effects with fatal outcomes possibly related to the study treatments, n patients: 3
[2]; Example 2b, 40 patients
  patients with TEAEs leading to dose reduction of melflufen from 40 mg to 25 mg: 32.5%
[2]; MM patients, clinical trials
  effect on renal function: does not appear to have any effect on renal function
[2]; in the clinical trials
  reports of syncope, seizures, ventricular arrhythmias, ventricular tachycardia, ventricular fibrillation, flutter, torsade de pointes, or sudden deaths: no reports
[2]; [17]
  dose reductions in connection to both thrombocytopenia and neutropenia: 9%
  dose reductions in connection to both thrombocytopenia and neutropenia, n patients: 1
  dose reductions in connection to neutropenia: 27%
  dose reductions in connection to neutropenia, n patients: 3
  dose reductions in connection to thrombocytopenia: 64%
  dose reductions in connection to thrombocytopenia, n patients: 7
[2]; [18]
  treatment discontinuations due to treatment-related bone marrow suppression: 35%
  treatment discontinuations due to treatment-related bone marrow suppression, n patients: 14
[2]; of the 57 patients in the ongoing melflufen study
  fatal events while on treatment or within 30 days of last dose, n patients: 6
